Earlier results in patent publication US20040202718A1, “Dosage form for treatment of diabetes mellitus” (priority 2001, published 2004).
Where a name gives a salt, the structure may show the parent alone.

Conditions: clinical study disclosed in U.S. Pat. No. 5,922,769

SMILES: CN(C)C(=N)N=C(N)N [Metformin hydrochloride]
- maximum dose which does not cause any side-effects: 1500 mg/day
